In patent US20250082587A1, “Method Of Treating Major Depressive Disorder” (CLEXIO BIOSCIENCES LTD., priority 2023, published 2025):

Test system: subjects with MDD with an inadequate response to standard antidepressant therapy
Test: Phase 2, randomized double blind study of 40 mg immediate release once daily esketamine as adjunct therapy; change in MADRS score
Type: in vivo, human
Conditions: for Change from baseline against placebo (MADRS): sub-analysis, 40 mg oral once daily
Description: A Phase 2, randomized double blind study to assess the safety and efficacy of 40 mg immediate release once daily esketamine as an adjunct therapy for subjects with MDD with an inadequate response to standard antidepressant therapy.
The safety and efficacy of 65 subjects with MDD with an inadequate response to standard antidepressant therapy were assessed in a Phase 2, randomized double blind study following the administration of 40 mg of immediate release once daily esketamine as adjunct therapy.
The study comprised 3 phases, screening (Days 0-28), double-blind treatment (days 29-56) and post-treatment safety follow-up (days 57-70) following the last study treatment administration.
The study's primary efficacy endpoint was the change from baseline to week 4 in the 10 item Montgomery-Åsberg Depression Rating Scale (MADRS). Key secondary efficacy endpoints included the change in the self-rated Symptoms of Depression Questionnaire (SDQ) from Baseline to Week 4, the change in the Sheehan Disability Scale (SDS) from Baseline to Week 4, the change in the MADRS score from Baseline to Week 2 and the change in the Clinical Global Impression-Severity (CGI-S) from Baseline to Week 4.
During screening, subjects were assessed for study eligibility and washed out from disallowed drugs. Inclusion criteria for the study included the subjects presenting with a baseline MADRS of at least 24.
After being found eligible, subjects were randomized to receive once daily, either placebo or 40 mg of oral, immediate release, esketamine, respectively.
Subjects received the first dose of their study drug at the study site and were then closely monitored for 3 hours to assess for potential neuropsychiatric adverse events using a comprehensive set of scales to identify sleepiness, sedation and dissociative effects. Thereafter, the subject was provided with a 1 week supply of the study drug for administration at their place of residence and instructed to take the study drug in the evening (except at the day of the weekly visit when it is taken at the study site) and not to drive for at least 8 hours following the dosing. At every subject visit, a psychiatrist evaluated the subject's MADRS score.

CN[C@]1(c2ccccc2Cl)CCCCC1=O [esketamine, (2S)-2-(2-Chlorophenyl)-2-(methylamino)cyclohexanone]
improvement in the symptoms (baseline MADRS of 28 or more, 40 mg immediate release oral, 28 days): statistically significant improvement | improvement in depression symptoms (baseline MADRS of less than 28, 40 mg immediate release oral, 28 days): no identifiable improvement | Change from baseline against placebo (MADRS) (baseline MADRS score <28, 28 days): +4.25 | Change from baseline against placebo (MADRS) (baseline MADRS score ≥28, 28 days, p value 0.005): −7.425 | Change from baseline against placebo (MADRS) (baseline MADRS score ≥33, 28 days, p value 0.050): −5.978 | primary efficacy endpoint (change from baseline to week 4 in MADRS) between treatment groups (subjects who completed the study, 40 mg oral once daily vs placebo): clinically meaningful and statistically significant
